Laboratory results as given in patent publication US20080306126A1, “Peroxisome proliferator activated receptor treatment of hyperhomocysteinemia and its complications” (priority 2004, published 2008).

Key:
Type in all cases: in vivo, Sprague Dawley rats
[1] = tested on: balloon catheter-injured carotid arteries; test: Balloon catheter injury of the carotid artery: development of intimal hyperplasia (I/M ratio); details: for I/M ratio of representative micrograph (single animal): 21 days after injury; for I/M (intimal/medial ratio), group mean: three weeks after catheter injury
Method: (§1) Ten-week-old female Sprague Dawley rats were obtained from Harlan Laboratories (Indianapolis, Ind.). After an acclimatization period of one week, they were fed a powdered control diet with or without methionine for one week. After one week on the normal or methionine diet, an aqueous preparation rosiglitazone (3.0 mg/kg/d) or vehicle was administered by gavage. The methionine diet was prepared with 10 g of L-methionine obtained from Sigma Chemical Company in St. Louis, Miss., added to 10 kg of powdered feed and thoroughly mixed. The rats were divided into four groups (n=7/group) and fed a) control diet; b) control diet with administration of rosiglitazone; c) methionine diet; and d) methionine diet with rosiglitazone.
Balloon catheter injury of to the carotid artery was induced as previously published (27). Briefly, a 2.0 mm PTCA obtained from Boston Scientific, Inc. in Quincy, Mass. was introduced through the femoral artery to the left carotid. The balloon was inflated to 4 atmospheres for 20 seconds and then deflated to 2 atmospheres and dragged down to the aorta. The animals were continued on their respective diets and rosiglitazone treatment was continued as indicated for three weeks after the surgery. The surgical procedures were conducted under anesthesia in a totally aseptic atmosphere. All rats had free access to the feed and water, and were maintained in a 12 hour day/light cycle.
The carotid arteries were separated and flushed with zinc buffered formalin. Each artery was cut from top into 4 equal segments and placed sequentially for embedding in paraffin. Sections no thicker then 6 um were cut and stained with hemotoxalin and eosin for microscopy. All four segments were read and the intimal/medial (I/M) ratio was calculated using Image-Pro software (NIH). The mean of the I/M ratios of the 4 sections reflected the I/M for one animal.

[2] = Serum homocysteine levels by high pressure liquid chromatography
Method: as §1
(§2) Before the beginning of the experiment, and at the time of sacrificing the animal a blood sample was obtained from each rat. At the end of the experiment, rats were sacrificed using a carbon dioxide chamber for harvesting tissues. Samples of blood and liver were collected and immediately processed. The serum and liver samples were stored frozen.
(§3) The Hcy levels were measured by high pressure liquid chromatography according to an established method (28,29). Cystathionine-β-synthase (CβS) was assayed in the liver samples, and the procedure followed was as previously published (26).

[3] = tested on: cystathionine-β-synthase (CβS); test: Cystathionine-β-synthase activity assayed in liver samples of treated rats; details: methionine diet with rosiglitazone, methionine diet alone 0.35+/−0.05
Method: as §1, §2, §3

## CN(CCOc1ccc(CC2SC(=O)NC2=O)cc1)c1ccccn1 (stereo not drawn) [rosiglitazone]
[1]; FIG. 1 micrograph C: control diet with rosiglitazone
  I/M ratio of representative micrograph (single animal): 0.19
[1]; FIG. 1 micrograph D: methionine diet with rosiglitazone
  I/M ratio of representative micrograph (single animal): 0.17
[1]; control diet with rosiglitazone 3.0 mg/kg/d by gavage, control diet alone 0.18+/−0.05
  I/M (intimal/medial ratio), group mean: 0.21+/−0.03
[1]; methionine diet with rosiglitazone 3.0 mg/kg/d by gavage, methionine diet alone 0.82+/−0.21
  I/M (intimal/medial ratio), group mean: 0.28+/−0.12
[1]; methionine diet with rosiglitazone 3.0 mg/kg/d by gavage, methionine diet alone 0.82+/−0.21, listed as Rosiglitazone
  I/M (intimal/medial ratio), group mean: 0.27+/−0.12
[2]; control diet with rosiglitazone, control diet alone 6.3+/−0.04 μM
  serum homocysteine level: 5.1 ± 0.6 µM
[2]; methionine diet with rosiglitazone treatment (background summary)
  homocysteine level: 16.4 ± 1.7 µM
[2]; methionine diet with rosiglitazone, methionine diet alone 28.9+/−3.2 μM
  serum homocysteine concentration: 16.4 ± 1.7 µM
[3]
  CβS activity: 0.57+/−0.1 μmoles/mg protein
